Values after ≈ are worked out from the molar mass of the structure shown. One block for each compound: values may come before it. Where a SMILES comes first, the peptide text is derived from it. Where no end group is shown, it is not given here. [ ]: non-standard residue; d: D form.
Legend:
Bacillus subtilis = assay: microbe, parasite or virus in culture; format: cell-based; settings: 37° C. for 20 hours, tested twice, first/second value where not matched
Procedure: (§1) Further, with respect to not only the above-described strains but also various other strains, the “minimum inhibitory concentration (MIC)” was measured as follows. MIC is the lowest concentration of an agent that may inhibit the growth of a bacterium. MIC is used as a parameter for the efficacy of an antibacterial agent, for the strength of bacterial sensitivity, or the like. The bacteria can grow (proliferate) when the concentration is not higher than MIC, and cannot grow when the concentration is higher than MIC. Its measurement is carried out according to a method defined as a standard method by Japanese Society of Chemotherapy or CLINICAL AND LABORATORY […] (CLSI), but, in this Example, its measurement was carried out by a broth microdilution method in accordance with “M100-S17/M7-A7” (Performance Standards for Antimicrobial Susceptibility Testing; Seventeenth Informational Supplement, Vol. 27 No. 1) published by CLSI on January, 2007. That is, sensitivity test of agents was carried out using a microtiter plate or test tubes.
(§2) The bacteria were cultured in liquid media for 4 to 6 hours, and thereafter absorbances at A600 were measured. Bacterial suspensions were diluted with Mueller-Hinton broth (MHB) according to McFarland #0.5. Each strain was added so as to attain about 10^5 CFU/ml (final concentration). Each peptide was prepared to an optional concentration, and the solutions were serially diluted from the concentration. The polypeptide at each concentration stage was added to a microplate or test tubes, and the bacterial suspension was added thereto. Chloramphenicol, amphotericin B, ciprofloxacin, meropenem (MEPM), ciprofloxacin (CPFX), tobramycin (TOB) and oxacillin (OX) were used as positive controls. The plate was incubated at 37° C. for 20 hours, and the lowest concentration where bacterial growth was inhibited was regarded as the minimum inhibitory concentration.

Streptococcus pyogenes = assay: microbe, parasite or virus in culture; format: cell-based; settings: 37° C. for 20 hours, tested twice, first/second value where not matched
Procedure: as §1, §2

Clostridium ramosum = assay: microbe, parasite or virus in culture; format: cell-based; settings: 37° C. for 20 hours, tested twice, first/second value where not matched
Procedure: as §1, §2

Fusobacterium nucleatum = assay: microbe, parasite or virus in culture; format: cell-based; settings: 37° C. for 20 hours, tested twice, first/second value where not matched
Procedure: as §1, §2

Bacteroides fragilis = assay: microbe, parasite or virus in culture; format: cell-based; settings: Bacteroides fragilis; 37° C. for 20 hours; tested twice, first/second value where not matched
Procedure: as §1, §2

Salmonella typhimurium = assay: microbe, parasite or virus in culture; format: cell-based; settings: Salmonella enterica, TYPHIMURIUM; 37° C. for 20 hours; tested twice, first/second value where not matched
Procedure: as §1, §2

Enterococcus faecalis = assay: microbe, parasite or virus in culture; format: cell-based; settings: 37° C. for 20 hours, tested twice, first/second value where not matched
Procedure: as §1, §2

Salmonella enteritidis = assay: microbe, parasite or virus in culture; format: cell-based; settings: Salmonella enterica, 37° C. for 20 hours, tested twice, first/second value where not matched
Procedure: as §1, §2

Micrococcus luteus = assay: microbe, parasite or virus in culture; format: cell-based; settings: 37° C. for 20 hours, tested twice, first/second value where not matched
Procedure: as §1, §2

Acinetobacter baumanni = format: cell-based; settings: 37° C. for 20 hours; tested twice, first/second value where not matched
Procedure: as §1, §2

[1] = Stability in human serum (HPLC); format: in vitro ADME; settings: 37° C.
Procedure: (§3) The stability of the polypeptides in serum was evaluated. In human serum (purchased from KAC Co., Ltd.), or in rat serum obtained by collecting blood from a rat, then leaving the collected blood to stand at room temperature followed by centrifugation, each of the peptides was dissolved so as to attain a final concentration of 500 μg/mL, and the obtained solutions were left to stand at 37° C. After leaving to stand for 3 min or 10 min, these solutions were subjected to HPLC chromatogram analysis to detect peaks of the decomposition products, and calculate the ratio of the concentration of the peptides which remained in the solutions relative to the starting concentration. In addition, the half-lives of the peptides in serum were also calculated.

[2] = Stability in rat serum (HPLC); format: in vitro ADME; settings: 37° C.
Procedure: as §3

[3] = test system: Normal human dermal fibroblasts (NHDFs); format: cell-based
Procedure: Next, the effect of these polypeptides on the growth of human umbilical vein endothelial cells (HUVECs) was studied. A cell growth activity of the polypeptides was examined using Cell Counting Kit (WST-1) available from Dojindo Laboratories. As a negative control (Control), polypeptide-free group was used. Cells (human umbilical vein endothelial cells: HUVECs) were plated in a 96-well plate (0.5×10^4 cells/well/100 μL, serum 1%). About 3 hours after plating the cells, the polypeptides (1, 3, 10, 30 or 100 μg/ml) and FGF (100 ng/ml) as a positive control were individually added thereto in an amount of 100 μL. To the unstimulated group, only a medium was added in an amount of 100 μL. The plate was left to stand in a CO2 incubator for about 48 hours. Thereafter, WST-1 reagent was added to each well in an amount of 20 μL, and then the plate was left to stand in a CO2 incubator for about 2 hours. Absorbances at wavelengths of 450 nm and 620 nm were measured using Wallac 1420 ARVOsx (Program: WST-1). A value of O.D.450-O.D.620 was calculated for each measurement. […] The cell growth activity was evaluated on the basis of the ratio of Net O.D.450 of polypeptide-containing groups relative to Net O.D.450 of the unstimulated group.
Then, the effect on the growth of normal human dermal fibroblasts (NHDFs) was also studied by the same method as described above.

[4] = Antibacterial activity, ATP assay (BacTiter-Glo); format: cell-based, Enterobacter aerogenes; settings: Table 7, mean values; peptides 10 μg/mL, TOB 4.0, OX 4.0, MEPM 0.5 μg/mL; 37° C. 3 hours; relative to negative control; read-out: Viability, Enterobacteria (2)
Procedure: The antibacterial activity of each of SR-08 and SR-07 polypeptides was measured using an ATP assay method. That is, using BacTiter-Glo Microbial Cell Viability Assay kit available from PROMEGA, the antibacterial activity of the peptides was evaluated from the viability of bacteria. In other words, ATP amount in viable bacteria in cases where the concentration of the peptides was 10 μg/mL was measured using a microtiter plate or test tubes. As controls, tobramycin (TOB), oxacillin (OX) and meropenem (MEPM) were used at the concentrations as respectively shown in Table 6 below.
With respect to the strains, Escherichia coli: ATCC 25922 (Escherichia coli ATCC 25922), Pseudomonas aeruginosa: ATCC 27853 (Pseudomonas aeruginosa ATCC 27853), Staphylococcus aureus: ATCC29213 (Staphylococcus aureus ATCC29213), Klebsiella pneumoniae: JCM 1662 (Klebsiella pneumoniae JCM 1662), enterobacteria (1): JCM 1232 (Enterobacter cloacae JCM 1232), and enterobacteria (2): JCM 1235 (Enterobacter aerogenes JCM 1235), were used.
The bacteria were cultured in media for 3 to 4 hours, and thereafter absorbances at A600 were measured. Bacterial suspensions were diluted with Mueller-Hinton broth (MHB) according to McFarland #0.5. Each strain was added so as to attain about 0.5-1×10^5 CFU/mL (final concentration) in terms of Escherichia coli. Each peptide was prepared and added to a microplate or test tubes so as to attain a final concentration of 10 μg/mL, and the bacterial suspension was added thereto. The plate was incubated at 37° C. for 3 hours, and the amount of ATP in the culture media was measured. Relative values were calculated by comparison with the negative control, and these values were regarded as the viability.

[5] = test system: Pseudomonas aeruginosa (clinical strain 9); assay: MIC measurement, broth microdilution; format: cell-based; settings: 37° C. for 20 hours; tested twice, first/second value where not matched
Fusarium solani = format: cell-based; settings: 37° C. for 20 hours; tested twice, first/second value where not matched
Procedure: as §1, §2

Pseudomonas aeruginosa = format: cell-based; settings: 37° C. for 20 hours; tested twice, first/second value where not matched
Procedure: as §1, §2

[6] = test system: Pseudomonas aeruginosa (clinical strain 12); assay: MIC measurement, broth microdilution; format: cell-based; settings: 37° C. for 20 hours; tested twice, first/second value where not matched
[7] = test system: Pseudomonas aeruginosa (clinical strain 1); assay: microbe, parasite or virus in culture; format: cell-based; settings: 37° C. for 20 hours; tested twice, first/second value where not matched
[8] = test system: Pseudomonas aeruginosa (clinical strain 6); assay: MIC measurement, broth microdilution; format: cell-based; settings: 37° C. for 20 hours; tested twice, first/second value where not matched
MSSA (clinical strain 1) = assay: microbe, parasite or virus in culture; format: cell-based, Staphylococcus aureus; settings: 37° C. for 20 hours; tested twice, first/second value where not matched
Procedure: as §1, §2

Escherichia coli = assay: MIC measurement, broth microdilution; format: cell-based; settings: 37° C. for 20 hours; tested twice, first/second value where not matched
Procedure: as §1, §2

[9] = test system: Staphylococcus epidermidis; assay: MIC measurement, broth microdilution; format: cell-based; settings: 37° C. for 20 hours; tested twice, first/second value where not matched
Procedure: as §1, §2

[10] = test system: Pseudomonas aeruginosa (clinical strain 8); assay: MIC measurement, broth microdilution; format: cell-based; settings: 37° C. for 20 hours; tested twice, first/second value where not matched

- MIC (Bacillus subtilis): 4 µg/mL (≈ 12.4 µM)
- MIC (Streptococcus pyogenes): 2 µg/mL (≈ 6.19 µM)
- MIC (Clostridium ramosum; Thomasclavelia ramosa): 4 µg/mL (≈ 12.4 µM)
- MIC (Fusobacterium nucleatum; Fusobacterium nucleatum): 0.25 µg/mL (≈ 0.774 µM)
- MIC (Bacteroides fragilis): 1 µg/mL (≈ 3.09 µM)
- MIC (Salmonella typhimurium): 4 µg/mL (≈ 12.4 µM)
- MIC (Enterococcus faecalis): 4 µg/mL (≈ 12.4 µM)
- MIC (Salmonella enteritidis): 4 µg/mL (≈ 12.4 µM)
- MIC (Micrococcus luteus): 1 µg/mL (≈ 3.09 µM)
- MIC, Acinetobacter baumanni (Acinetobacter baumanni): 16/32
Compound: O=C(N[C@H](CO)[C@H](O)c1ccc([N+](=O)[O-])cc1)C(Cl)Cl [Chloramphenicol]

Compound: CC[C@H](C)[C@H](NC(=O)[C@H](CC(C)C)NC(=O)[C@H](CCCCN)NC(=O)[C@H](CC(C)C)NC(=O)[C@@H](N)CCSC)C(=O)N[C@@H](Cc1ccccc1)C(=O)N[C@@H](CC(C)C)C(=O)N[C@@H](Cc1c[nH]cn1)C(=O)N[C@@H](CCCNC(=N)N)C(=O)N[C@@H](CC(C)C)C(=O)N[C@@H](CCCCN)C(=O)N[C@@H](CCCNC(=N)N)C(=O)N[C@@H](CCSC)C(=O)N[C@@H](CCCNC(=N)N)C(=O)N[C@@H](CCCCN)C(=O)N[C@@H](CCCNC(=N)N)C(=O)N[C@@H](CC(C)C)C(=O)N[C@H](CCCCN)C(=O)N[C@@H](CCCNC(=N)N)C(=O)N[C@@H](CCCCN)C(=O)O [SR-07] (H-MLKLIFLHRLKRMRKRL[dK]RK-OH; N-terminus and C-terminus assumed)
- Ratio of peptide remaining relative to the starting concentration, human serum, 0 min ([1]; 500 μg/mL, 0 min): 100
- remaining at 0.05 h, 500 μg/mL ([1]; human, human serum, 3 min, read-out: Ratio of peptide remaining relative to the starting concentration, human serum, 3 min): 98%
- remaining at 10 min, 500 μg/mL ([1]; human, human serum, 10 min, read-out: Ratio of peptide remaining relative to the starting concentration, human serum, 10 min): 64.3%
- half-life ([1]; human, serum, 500 μg/mL): 15 min
- Ratio of peptide remaining relative to the starting concentration, rat serum, 0 min ([2]; 500 μg/mL, 0 min): 100
- remaining at 0.05 h, 500 μg/mL ([2]; rat, rat serum, 3 min, read-out: Ratio of peptide remaining relative to the starting concentration, rat serum, 3 min): 51%
- remaining at 10 min, 500 μg/mL ([2]; rat, rat serum, 10 min, read-out: Ratio of peptide remaining relative to the starting concentration, rat serum, 10 min): 16.5%
- half-life ([2]; rat, serum, 500 μg/mL): 4 min
- Concentration above which the polypeptide tended to exhibit toxicity, NHDFs (FIG. 4) [3]: > 30000 ng/mL
- viability [4]: 16.5%

- MIC, Pseudomonas aeruginosa (clinical strain 9) [5]: 32/128
- MIC, Clostridium ramosum (Clostridium ramosum): 32/64
- MIC, Fusobacterium nucleatum (Fusobacterium nucleatum): 2/4
- MIC, Fusarium solani (Fusarium solani): 4/8
- MIC, Acinetobacter baumanni (Acinetobacter baumanni): 4/8
- MIC, Pseudomonas aeruginosa (Pseudomonas aeruginosa): 16/32
- MIC, Pseudomonas aeruginosa (clinical strain 12) [6]: 16/32
- MIC, Pseudomonas aeruginosa (clinical strain 1) [7]: 16/64
- MIC, Pseudomonas aeruginosa (clinical strain 6) [8]: 32/64
- MIC, MSSA (clinical strain 1) (MSSA (clinical strain 1)): 16/32
- MIC, Escherichia coli (Escherichia coli): 8/16
- MIC, Staphylococcus epidermidis [9]: 8/16
- MIC, Pseudomonas aeruginosa (clinical strain 8) [10]: 32/64
Compound: KNLRRIIRKIIHIIKKYG [AP00196]

Reference: patent publication US9695219B2, “Polypeptide having antibacterial activity and angiogenesis-inducing activity and wound-healing drug containing said polypeptide” (priority 2009, dated 2017)
